Test results from ChEMBL document CHEMBL4507259 (2021).

Assays:
[1] = target: Serine/threonine-protein kinase 32A (Homo sapiens) (UniProt Q8WU08); settings: Compound concentration 1000.0 nM
[2] = target: Phosphorylase b kinase gamma catalytic chain, skeletal muscle/heart isoform (Homo sapiens) (UniProt Q16816); settings: Compound concentration 1000.0 nM
[3] = target: Serine/threonine-protein kinase TAO1 (Homo sapiens) (UniProt Q7L7X3); settings: Compound concentration 1000.0 nM
[4] = target: Histamine H3 receptor (Homo sapiens) (UniProt Q9Y5N1); settings: Compound concentration 10.0 uM
[5] = target: Cyclin-dependent kinase 16 (Homo sapiens) (UniProt Q00536); settings: Compound concentration 1000.0 nM
[6] = target: Activin receptor type-1B (Homo sapiens) (UniProt P36896); settings: Compound concentration 1000.0 nM
[7] = target: Histamine H4 receptor (Homo sapiens) (UniProt Q9H3N8); settings: Compound concentration 10.0 uM
[8] = target: Mitogen-activated protein kinase 6 (Homo sapiens) (UniProt Q16659); settings: Compound concentration 1000.0 nM
[9] = tested on: Tyrosine-protein kinase ABL1 (Homo sapiens), P00519 [Y253F]; settings: Compound concentration 1000.0 nM
Rattus norvegicus = species on record: Rattus norvegicus; settings: Compound concentration 10.0 uM
[10] = target: Tyrosine-protein kinase ZAP-70 (Homo sapiens) (UniProt P43403); settings: Compound concentration 1000.0 nM
[11] = target: Cyclin-dependent kinase 11B (Homo sapiens) (UniProt P21127); settings: Compound concentration 1000.0 nM
[12] = tested on: Leucine-rich repeat serine/threonine-protein kinase 2 (Homo sapiens), Q5S007 [G2019S]; settings: Compound concentration 1000.0 nM
[13] = target: Rhodopsin kinase GRK7 (Homo sapiens) (UniProt Q8WTQ7); settings: Compound concentration 1000.0 nM
[14] = target: Dual specificity protein kinase CLK1 (Homo sapiens) (UniProt P49759); settings: Compound concentration 1000.0 nM
[15] = target: Urotensin-2 receptor (Homo sapiens) (UniProt Q9UKP6); experiment: UT (h) CEREP ligand profiling; settings: filed as agonist, Compound concentration 10.0 uM
[16] = target: D(4) dopamine receptor (Homo sapiens) (UniProt P21917); settings: Compound concentration 10.0 uM
[17] = target: Tyrosine-protein kinase receptor TYRO3 (Homo sapiens) (UniProt Q06418); settings: Compound concentration 1000.0 nM
[18] = target: Casein kinase I isoform gamma-3 (Homo sapiens) (UniProt Q9Y6M4); settings: Compound concentration 1000.0 nM
[19] = tested on: Epidermal growth factor receptor (Homo sapiens), P00533 [UNDEFINED MUTATION]; settings: Compound concentration 1000.0 nM
[20] = target: MAP kinase-interacting serine/threonine-protein kinase 1 (Homo sapiens) (UniProt Q9BUB5); settings: Compound concentration 1000.0 nM
[21] = tested on: Tyrosine-protein kinase ABL1 (Homo sapiens), P00519 [F317L]; settings: Compound concentration 1000.0 nM
[22] = target: Phosphatidylinositol 4,5-bisphosphate 3-kinase catalytic subunit delta isoform (Homo sapiens) (UniProt O00329); settings: Compound concentration 1000.0 nM
[23] = target: Sodium-dependent dopamine transporter (Homo sapiens, UniProt Q01959); experiment: dopamine transporter (h) CEREP ligand profiling; settings: filed as antagonist, Compound concentration 10.0 uM
[24] = target: Mitogen-activated protein kinase kinase kinase 14 (Homo sapiens) (UniProt Q99558); settings: Compound concentration 1000.0 nM
[25] = target: Atypical kinase COQ8B, mitochondrial (Homo sapiens) (UniProt Q96D53); settings: Compound concentration 1000.0 nM
[26] = target: Cannabinoid receptor 1 (Homo sapiens) (UniProt P21554); experiment: CB1 (h) CEREP ligand profiling; settings: filed as agonist, Compound concentration 10.0 uM
[27] = target: Calcium-activated potassium channel (Homo sapiens) (UniProt Q92952+Q9UGI6+Q12791+O15554+Q9H2S1+A8MYU2); experiment: SKCa channel CEREP ligand profiling; format: protein assay; settings: filed as antagonist; Compound concentration 10.0 uM
[28] = target: Mitogen-activated protein kinase kinase kinase 12 (Homo sapiens) (UniProt Q12852); settings: Compound concentration 1000.0 nM
[29] = target: Serine/threonine-protein kinase D1 (Homo sapiens) (UniProt Q15139); settings: Compound concentration 1000.0 nM
[30] = tested on: Receptor-type tyrosine-protein kinase FLT3 (Homo sapiens), P36888 [UNDEFINED MUTATION]; settings: Compound concentration 1000.0 nM
[31] = target: Serine/threonine-protein kinase 35 (Homo sapiens) (UniProt Q8TDR2); settings: Compound concentration 1000.0 nM
[32] = tested on: Epidermal growth factor receptor (Homo sapiens), P00533 [L861Q]; settings: Compound concentration 1000.0 nM
[33] = target: Tyrosine-protein kinase JAK3 (Homo sapiens) (UniProt P52333); settings: Compound concentration 1000.0 nM
[34] = target: Mitogen-activated protein kinase kinase kinase 15 (Homo sapiens) (UniProt Q6ZN16); settings: Compound concentration 1000.0 nM
[35] = target: T1, Alpha-2B adrenergic receptor (Homo sapiens) (UniProt P18089); experiment: alpha 2B (h) CEREP ligand profiling; settings: filed as antagonist, Compound concentration 10.0 uM
T1 sequence (whole entry): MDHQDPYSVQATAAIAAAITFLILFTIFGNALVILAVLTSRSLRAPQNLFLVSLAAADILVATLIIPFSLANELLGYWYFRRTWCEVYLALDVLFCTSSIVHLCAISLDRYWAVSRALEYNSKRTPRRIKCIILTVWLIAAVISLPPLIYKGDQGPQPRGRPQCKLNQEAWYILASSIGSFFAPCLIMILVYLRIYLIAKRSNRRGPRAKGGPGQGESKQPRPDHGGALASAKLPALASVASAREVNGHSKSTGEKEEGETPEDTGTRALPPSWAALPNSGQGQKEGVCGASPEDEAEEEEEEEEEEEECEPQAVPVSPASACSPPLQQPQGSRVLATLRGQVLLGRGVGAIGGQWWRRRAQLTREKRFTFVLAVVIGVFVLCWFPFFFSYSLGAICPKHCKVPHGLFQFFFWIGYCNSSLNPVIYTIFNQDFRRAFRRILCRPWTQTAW

[36] = target: Serine/threonine-protein kinase 10 (Homo sapiens) (UniProt O94804); settings: Compound concentration 1000.0 nM
[37] = tested on: Tyrosine-protein kinase ABL1 (Homo sapiens), P00519 [M351T]; settings: Compound concentration 1000.0 nM

Tyrosine-protein kinase JAK3 (Homo sapiens), sequence (P52333 whole entry): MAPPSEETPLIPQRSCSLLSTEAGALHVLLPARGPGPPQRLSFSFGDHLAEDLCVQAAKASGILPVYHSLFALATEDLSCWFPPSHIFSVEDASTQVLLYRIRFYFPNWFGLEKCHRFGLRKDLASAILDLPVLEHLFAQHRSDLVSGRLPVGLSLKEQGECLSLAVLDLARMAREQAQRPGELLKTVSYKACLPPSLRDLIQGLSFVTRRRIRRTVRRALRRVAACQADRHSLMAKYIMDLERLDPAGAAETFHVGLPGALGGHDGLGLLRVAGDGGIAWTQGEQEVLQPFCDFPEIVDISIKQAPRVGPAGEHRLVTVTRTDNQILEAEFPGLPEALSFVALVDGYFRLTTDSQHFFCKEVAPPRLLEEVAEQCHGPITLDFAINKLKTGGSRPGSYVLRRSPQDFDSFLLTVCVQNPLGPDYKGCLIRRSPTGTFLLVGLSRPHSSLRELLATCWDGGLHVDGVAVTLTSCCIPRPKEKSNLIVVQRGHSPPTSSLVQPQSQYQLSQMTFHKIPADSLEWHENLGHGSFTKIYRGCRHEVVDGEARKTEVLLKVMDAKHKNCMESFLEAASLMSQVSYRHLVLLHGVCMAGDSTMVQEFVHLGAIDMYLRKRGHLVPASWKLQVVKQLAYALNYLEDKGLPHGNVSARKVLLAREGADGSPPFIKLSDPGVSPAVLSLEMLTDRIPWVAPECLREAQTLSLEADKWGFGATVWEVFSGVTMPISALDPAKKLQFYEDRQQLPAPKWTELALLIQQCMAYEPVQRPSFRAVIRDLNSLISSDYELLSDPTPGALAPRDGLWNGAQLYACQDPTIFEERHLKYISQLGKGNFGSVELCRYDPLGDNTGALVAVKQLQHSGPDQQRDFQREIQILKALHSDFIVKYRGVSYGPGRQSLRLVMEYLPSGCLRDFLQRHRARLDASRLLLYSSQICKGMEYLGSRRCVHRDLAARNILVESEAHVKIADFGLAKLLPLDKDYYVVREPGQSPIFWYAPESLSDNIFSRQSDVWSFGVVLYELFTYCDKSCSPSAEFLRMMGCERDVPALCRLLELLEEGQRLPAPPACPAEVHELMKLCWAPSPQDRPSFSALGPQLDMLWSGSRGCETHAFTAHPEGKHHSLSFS
Sodium-dependent dopamine transporter, sequence (Q01959 whole entry): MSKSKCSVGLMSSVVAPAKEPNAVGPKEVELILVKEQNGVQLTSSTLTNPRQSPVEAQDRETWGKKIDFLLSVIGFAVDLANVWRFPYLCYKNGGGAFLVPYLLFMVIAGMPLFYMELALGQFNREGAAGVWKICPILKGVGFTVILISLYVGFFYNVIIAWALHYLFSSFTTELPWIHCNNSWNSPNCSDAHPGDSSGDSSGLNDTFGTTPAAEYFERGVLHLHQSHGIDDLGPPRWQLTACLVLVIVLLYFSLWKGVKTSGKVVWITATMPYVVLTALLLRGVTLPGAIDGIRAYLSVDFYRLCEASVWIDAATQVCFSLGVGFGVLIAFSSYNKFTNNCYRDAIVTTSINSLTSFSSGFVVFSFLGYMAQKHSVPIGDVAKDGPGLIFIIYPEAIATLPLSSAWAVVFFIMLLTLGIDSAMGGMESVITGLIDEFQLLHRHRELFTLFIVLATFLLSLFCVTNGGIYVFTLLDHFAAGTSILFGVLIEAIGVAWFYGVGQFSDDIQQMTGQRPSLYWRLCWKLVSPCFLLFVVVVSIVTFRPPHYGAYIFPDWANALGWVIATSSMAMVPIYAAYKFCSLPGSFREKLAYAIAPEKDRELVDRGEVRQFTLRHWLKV
Leucine-rich repeat serine/threonine-protein kinase 2 (Homo sapiens), Q5S007 [G2019S], sequence (Q5S007 whole entry G2019S): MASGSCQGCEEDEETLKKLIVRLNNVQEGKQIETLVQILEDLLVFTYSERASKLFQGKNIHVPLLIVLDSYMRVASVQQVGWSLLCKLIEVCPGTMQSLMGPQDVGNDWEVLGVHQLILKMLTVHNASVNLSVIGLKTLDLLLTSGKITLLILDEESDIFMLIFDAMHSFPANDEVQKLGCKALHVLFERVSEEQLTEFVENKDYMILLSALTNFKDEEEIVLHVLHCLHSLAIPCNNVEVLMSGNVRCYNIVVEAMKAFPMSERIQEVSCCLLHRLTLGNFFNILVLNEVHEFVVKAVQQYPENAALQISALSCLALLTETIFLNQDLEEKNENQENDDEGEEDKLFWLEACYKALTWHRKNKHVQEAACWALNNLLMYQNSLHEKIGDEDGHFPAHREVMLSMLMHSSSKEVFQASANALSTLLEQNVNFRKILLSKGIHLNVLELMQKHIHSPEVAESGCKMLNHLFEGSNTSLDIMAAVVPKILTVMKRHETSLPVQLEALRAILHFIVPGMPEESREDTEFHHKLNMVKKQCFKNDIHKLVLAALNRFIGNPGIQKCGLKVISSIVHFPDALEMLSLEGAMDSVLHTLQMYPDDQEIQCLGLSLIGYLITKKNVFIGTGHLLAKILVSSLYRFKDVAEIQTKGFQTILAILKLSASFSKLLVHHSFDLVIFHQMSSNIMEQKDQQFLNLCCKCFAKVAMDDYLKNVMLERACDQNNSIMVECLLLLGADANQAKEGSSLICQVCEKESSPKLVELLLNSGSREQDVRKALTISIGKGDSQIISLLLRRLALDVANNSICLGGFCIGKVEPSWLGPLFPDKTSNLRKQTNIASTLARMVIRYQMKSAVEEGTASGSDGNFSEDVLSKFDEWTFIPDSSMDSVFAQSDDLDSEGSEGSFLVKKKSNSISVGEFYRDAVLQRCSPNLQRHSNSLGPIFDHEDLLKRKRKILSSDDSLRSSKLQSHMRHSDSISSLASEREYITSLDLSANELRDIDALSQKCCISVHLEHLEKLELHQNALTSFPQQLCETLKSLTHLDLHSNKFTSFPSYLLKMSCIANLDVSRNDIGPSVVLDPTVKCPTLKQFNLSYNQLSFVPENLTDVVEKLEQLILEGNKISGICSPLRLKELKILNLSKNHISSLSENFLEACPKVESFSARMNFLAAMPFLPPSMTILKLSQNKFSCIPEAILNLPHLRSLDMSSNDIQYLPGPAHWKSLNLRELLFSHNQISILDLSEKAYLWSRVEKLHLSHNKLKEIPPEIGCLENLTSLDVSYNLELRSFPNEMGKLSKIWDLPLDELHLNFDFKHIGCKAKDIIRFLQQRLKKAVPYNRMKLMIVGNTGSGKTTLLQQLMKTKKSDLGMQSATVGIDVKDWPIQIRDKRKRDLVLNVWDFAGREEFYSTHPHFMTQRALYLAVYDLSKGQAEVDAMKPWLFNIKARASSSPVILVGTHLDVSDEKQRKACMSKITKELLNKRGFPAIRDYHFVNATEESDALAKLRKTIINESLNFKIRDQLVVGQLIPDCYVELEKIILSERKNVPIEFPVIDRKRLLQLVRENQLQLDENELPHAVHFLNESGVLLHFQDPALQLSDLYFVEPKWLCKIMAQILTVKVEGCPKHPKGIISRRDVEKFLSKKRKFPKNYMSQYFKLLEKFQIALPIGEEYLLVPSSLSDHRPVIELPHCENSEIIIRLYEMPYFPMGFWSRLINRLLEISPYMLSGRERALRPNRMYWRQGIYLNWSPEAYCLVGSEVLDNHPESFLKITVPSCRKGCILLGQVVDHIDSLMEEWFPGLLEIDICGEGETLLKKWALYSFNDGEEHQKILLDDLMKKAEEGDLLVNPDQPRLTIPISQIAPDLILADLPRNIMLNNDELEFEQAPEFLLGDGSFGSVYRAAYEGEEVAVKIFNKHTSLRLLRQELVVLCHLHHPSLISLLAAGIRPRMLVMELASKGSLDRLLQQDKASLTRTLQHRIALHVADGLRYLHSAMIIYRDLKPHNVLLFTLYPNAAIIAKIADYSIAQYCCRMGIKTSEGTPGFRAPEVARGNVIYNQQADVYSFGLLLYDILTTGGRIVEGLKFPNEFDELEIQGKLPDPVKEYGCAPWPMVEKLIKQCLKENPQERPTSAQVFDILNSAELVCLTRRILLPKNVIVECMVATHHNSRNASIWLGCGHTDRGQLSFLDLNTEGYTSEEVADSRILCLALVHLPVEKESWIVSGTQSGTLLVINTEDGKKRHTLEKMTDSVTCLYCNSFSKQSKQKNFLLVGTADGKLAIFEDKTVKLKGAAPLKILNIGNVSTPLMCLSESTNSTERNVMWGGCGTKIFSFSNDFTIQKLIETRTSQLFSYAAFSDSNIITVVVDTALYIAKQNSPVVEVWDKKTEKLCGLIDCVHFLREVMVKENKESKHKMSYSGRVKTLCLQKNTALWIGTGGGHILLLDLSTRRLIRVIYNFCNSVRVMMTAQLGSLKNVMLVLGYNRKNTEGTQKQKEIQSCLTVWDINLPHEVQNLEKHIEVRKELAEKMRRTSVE
Phosphorylase b kinase gamma catalytic chain, skeletal muscle/heart isoform (Homo sapiens), sequence (Q16816 whole entry, looked up, canonical isoform): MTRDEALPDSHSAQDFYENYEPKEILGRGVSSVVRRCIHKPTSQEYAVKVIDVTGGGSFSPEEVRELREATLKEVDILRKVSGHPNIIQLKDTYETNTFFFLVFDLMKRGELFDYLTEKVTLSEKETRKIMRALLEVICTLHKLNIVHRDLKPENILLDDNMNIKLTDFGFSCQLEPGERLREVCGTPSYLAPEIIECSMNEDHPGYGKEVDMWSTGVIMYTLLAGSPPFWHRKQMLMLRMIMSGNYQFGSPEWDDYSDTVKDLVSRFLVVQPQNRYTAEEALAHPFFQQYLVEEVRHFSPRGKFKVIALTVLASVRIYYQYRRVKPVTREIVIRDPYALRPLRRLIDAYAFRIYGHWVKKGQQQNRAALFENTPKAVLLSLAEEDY
Cannabinoid receptor 1 (Homo sapiens), sequence (P21554 whole entry): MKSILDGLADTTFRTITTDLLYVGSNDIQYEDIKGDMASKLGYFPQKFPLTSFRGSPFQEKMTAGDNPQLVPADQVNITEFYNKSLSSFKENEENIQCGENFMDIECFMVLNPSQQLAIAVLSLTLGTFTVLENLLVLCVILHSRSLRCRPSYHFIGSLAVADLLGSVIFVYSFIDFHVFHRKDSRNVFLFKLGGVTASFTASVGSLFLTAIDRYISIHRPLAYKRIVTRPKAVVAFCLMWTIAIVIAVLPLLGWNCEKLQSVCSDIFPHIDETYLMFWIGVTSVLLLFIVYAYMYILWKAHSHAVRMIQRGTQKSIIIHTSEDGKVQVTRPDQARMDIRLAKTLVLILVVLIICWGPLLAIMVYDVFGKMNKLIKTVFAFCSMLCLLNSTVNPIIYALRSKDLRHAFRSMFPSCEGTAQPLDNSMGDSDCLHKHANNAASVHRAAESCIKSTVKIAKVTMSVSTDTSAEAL

Structure (SMILES) | residual activity [1] [%] | residual activity [2] [%] | residual activity [3] [%] | inhibition [4] [%] | residual activity [5] [%] | residual activity [6] [%] | inhibition [7] [%] | residual activity [8] [%] | residual activity [9] [%] | inhibition (Rattus norvegicus) [%] | residual activity [10] [%] | residual activity [11] [%] | residual activity [12] [%] | residual activity [13] [%] | residual activity [14] [%] | inhibition [15] [%] | inhibition [16] [%] | residual activity [17] [%] | residual activity [18] [%] | residual activity [19] [%] | other results
CNC(=O)Nc1ccc2c(c1)CC[C@@]21OC(=O)N(CC(=O)N(Cc2ccc(F)cc2)[C@@H](C)C(F)(F)F)C1=O [A-485] | 88 | 100 | 94 | 0.39 | 75 | 86 | 10.1 | 100 | 81 | 60 | 73 | 84 | 100 | 83 | 69 | 6 | 7.26 | 81 | 84 | 63 | residual activity [20]: 67%; residual activity [21]: 64%; residual activity [22]: 92%; inhibition [23]: 94%; residual activity [24]: 67%; residual activity [25]: 100%; inhibition [26]: 25%; inhibition [27]: 2%; residual activity [28]: 100%; residual activity [29]: 99%; residual activity [30]: 84%; residual activity [31]: 89%; residual activity [32]: 94%; residual activity [33]: 73%; residual activity [34]: 77%; inhibition [35]: -4%; residual activity [36]: 100%; residual activity [37]: 100%
CNC(=O)Nc1ccc2c(c1)[C@@]1(CC2)OC(=O)N(CC(=O)N(Cc2ccc(F)cc2)[C@@H](C)C(F)(F)F)C1=O [A-486] | 100 | 100 | 97 | 13.2 | 83 | 100 | 5.16 | 97 | 100 | 50.6 | 100 | 97 | 100 | 85 | 82 | 21 | 8.38 | 70 | 89 | 100 | residual activity [20]: 94%; residual activity [21]: 66%; residual activity [22]: 100%; inhibition [23]: 27%; residual activity [24]: 68%; residual activity [25]: 95%; inhibition [26]: 22%; inhibition [27]: -7%; residual activity [28]: 100%; residual activity [29]: 100%; residual activity [30]: 87%; residual activity [31]: 85%; residual activity [32]: 100%; residual activity [33]: 91%; residual activity [34]: 90%; inhibition [35]: 4%; residual activity [36]: 92%; residual activity [37]: 88%
